Read-outs that look alike come from different tables or passages of the source.
Legend:
HCV genotype 1b replicon = assay: HCV replicon assay, genotype 1b replicon EC50; format: cell-based, Hepatitis C virus; conditions: Hepatitis C virus, read-out: EC50 [gt-1b]
Summary of the method: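 Compound dilution series incubated 24-48 h, G418 absent, with HCV genotype 1b replicon cell lines kept under G418 selection beforehand. Luciferase signal or replicon RNA, by ^32P hybridization/protection or TaqMan normalized to cyclophilin A, was measured after washing and lysis. Four-parameter fitting against DMSO control gave EC50.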

[1] = biological target: HCV NS3/4A protease genotype 1b (Hepatitis C virus genotype 1b, UniProt P26663); assay: HCV NS3/4A protease time-resolved fluorescence (TRF) assay, Ki against genotype 1b; format: biochemical
Summary of the method: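 Enzyme was pre-incubated 30 min with inhibitor in HEPES pH 7.5 buffer (150 mM NaCl, 15% glycerol, 10 mM DTT). Reaction ran 2.5 h at room temperature with 25 nM europium TRF peptide substrate, read at ex 340/em 615 nm. Enzyme levels: 0.2 nM (1b), 0.4 nM (A156T), 0.025 nM (3a). Ki came from four-parameter IC50 via IC50=Ki(1+[S]/KM).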

[2] = IC50 [gt-1b] (nM), NS3/4A genotype 1b, enzyme 0.2 nM
[3] = IC50 [gt-1b], NS3/4A protease TRF assay, genotype 1b enzyme 0.2 nM
[4] = HCV replicon, genotype 1b, K+ salt
[5] = IC50 [gt-1b], NS3/4A protease TRF assay, genotype 1b enzyme 0.2 nM, K+ salt
[6] = IC50 [gt-1b] (nM), NS3/4A genotype 1b, enzyme 0.2 nM, K+ salt

## CC(C)COC(=O)N[C@H]1CCCCC/C=C\[C@@H]2C[C@@]2(C(=O)NS(=O)(=O)C2(C)CC2)NC(=O)[C@@H]2C[C@]3(CCc4c(c(C5CC5)nc5ccccc45)O3)CN2C1=O [Example 103, 2-methylpropyl [(2R,6S,12Z,13aS,14aR,16aS)-5′-cyclopropyl-14a-{[(1-methylcyclopropyl)sulfonyl]carbamoyl}-5,16-dioxo-1,1′,2′,5,6,7,8,9,10,11,13a,14,14a,15,16,16a-hexadecahydrospiro[cyclopropa[e]pyrrolo[1,2-a][1,4]diazacyclopentadecine-2,3′-pyrano[2,3-c]quinolin]-6-yl]carbamate]
HCV genotype 1b replicon; genotype 1b replicon
  EC50: 1.51 nM
[1]; [2]
  IC50: 0.012 nM

## Cc1nc2ccccc2c2c1O[C@]1(CC2)C[C@H]2C(=O)N[C@]3(C(=O)NS(=O)(=O)C4(C)CC4)C[C@H]3/C=C\CCCCC[C@H](Nc3cccc(F)c3)C(=O)N2C1 [Example 345, (2R,6S,12Z,13aS,14aR,16aS)-6-[(3-fluorophenyl)amino]-5′-methyl-N-[(1-methylcyclopropyl)sulfonyl]-5,16-dioxo-1,1′,2′,6,7,8,9,10,11,13a,14,15,16,16a-tetradecahydrospiro[cyclopropa[e]pyrrolo[1,2-a][1,4]diazacyclopentadecine-2,3′-pyrano[2,3-c]quinoline]-14a(5H)-carboxamide]
HCV genotype 1b replicon; genotype 1b replicon
  EC50: 6.59 nM
[1]; [2]
  IC50: 0.428 nM

## CC(C)(C)OC(=O)N[C@H]1CCCCC/C=C\[C@@H]2C[C@@]2(C(=O)NS(=O)(=O)C2(C)CC2)NC(=O)[C@@H]2C[C@]3(CCc4c(c(C(F)(F)F)nc5ccc(OCF)cc45)O3)CN2C1=O [Example 458, tert-butyl [(2R,6S,12Z,13aS,14aR,16aS)-9′-(fluoromethoxy)-14a-{[(1-methylcyclopropyl)sulfonyl]carbamoyl}-5,16-dioxo-5′-(trifluoromethyl)-1,1′,2′,5,6,7,8,9,10,11,13a,14,14a,15,16,16a-hexadecahydrospiro[cyclopropa[e]pyrrolo[1,2-a][1,4]diazacyclopentadecine-2,3′-pyrano[2,3-c]quinolin]-6-yl]carbamate]
HCV genotype 1b replicon; HCV replicon, genotype 1b
  EC50: 1.43 nM
[1]; [3]
  IC50: 0.015 nM

## COc1ccc2nc(C3CC3)c3c(c2c1)[C@H](F)C[C@]1(C[C@H]2C(=O)N[C@]4(C(=O)NS(=O)(=O)C5(C)CC5)C[C@H]4/C=C\CCCCC[C@H](NC(=O)O[C@H](C)C(C)C)C(=O)N2C1)O3 [Example 457, (2R)-3-methylbutan-2-yl [(1′R,2S,6S,12Z,13aS,14aR,16aS)-5′-cyclopropyl-1′-fluoro-9′-methoxy-14a-{[(1-methylcyclopropyl)sulfonyl]carbamoyl}-5,16-dioxo-1,1′,2′,5,6,7,8,9,10,11,13a,14,14a,15,16,16a-hexadecahydrospiro[cyclopropa[e]pyrrolo[1,2-a][1,4]diazacyclopentadecine-2,3′-pyrano[2,3-c]quinolin]-6-yl]carbamate]
HCV genotype 1b replicon; [4]
  EC50: 1.17 nM
[1]; [5]
  IC50: 0.068 nM

## Cc1nc2ccc(Cl)cc2c2c1O[C@]1(CC2)C[C@H]2C(=O)N[C@]3(C(=O)NS(=O)(=O)C4(C)CC4)C[C@H]3/C=C\CCCCC[C@H](NC(=O)OC(C)C)C(=O)N2C1 [Example 183, propan-2-yl [(2R,6S,12Z,13aS,14aR,16aS)-9′-chloro-5′-methyl-14a-{[(1-methylcyclopropyl)sulfonyl]carbamoyl}-5,16-dioxo-1,1′,2′,5,6,7,8,9,10,11,13a,14,14a,15,16,16a-hexadecahydrospiro[cyclopropa[e]pyrrolo[1,2-a][1,4]diazacyclopentadecine-2,3′-pyrano[2,3-c]quinolin]-6-yl]carbamate]
HCV genotype 1b replicon; genotype 1b replicon, K+ salt
  EC50: 1.63 nM
[1]; [6]
  IC50: 0.008 nM

## CCc1nc2ccc(OCCN3CCOCC3)cc2c2c1O[C@]1(CC2)C[C@H]2C(=O)N[C@]3(C(=O)NS(=O)(=O)C4(C)CC4)C[C@H]3/C=C\CCCCC[C@H](NC(=O)OC(C)(C)C)C(=O)N2C1 [Example 470, tert-butyl {(2R,6S,12Z,13aS,14aR,16aS)-5′-ethyl-14a-{[(1-methylcyclopropyl)sulfonyl]carbamoyl}-9′-[2-(morpholin-4-yl)ethoxy]-5,16-dioxo-1,1′,2′,5,6,7,8,9,10,11,13a,14,14a,15,16,16a-hexadecahydrospiro[cyclopropa[e]pyrrolo[1,2-a][1,4]diazacyclopentadecine-2,3′-pyrano[2,3-c]quinolin]-6-yl}carbamate]
HCV genotype 1b replicon; HCV replicon, genotype 1b
  EC50: 5.74 nM
[1]; [3]
  IC50: 0.011 nM

## COc1ccc2nc(C)c3c(c2c1)C(F)(F)C[C@]1(C[C@H]2C(=O)N[C@]4(C(=O)NS(=O)(=O)C5(C)CC5)C[C@H]4/C=C\CCCCC[C@H](NC(=O)OC(C)(C)C(F)(F)F)C(=O)N2C1)O3 [Example 265, 1,1,1-trifluoro-2-methylpropan-2-yl [(2S,6S,12Z,13aS,14aR,16aS)-1′,1′-difluoro-9′-methoxy-5′-methyl-14a-{[(1-methylcyclopropyl)sulfonyl]carbamoyl}-5,16-dioxo-1,1′,2′,5,6,7,8,9,10,11,13a,14,14a,15,16,16a-hexadecahydrospiro[cyclopropa[e]pyrrolo[1,2-a][1,4]diazacyclopentadecine-2,3′-pyrano[2,3-c]quinolin]-6-yl]carbamate]
HCV genotype 1b replicon; genotype 1b replicon, K+ salt
  EC50: 3.35 nM
[1]; [6]
  IC50: 0.007 nM

## CCc1nc2ccc(OC)cc2c2c1O[C@]1(CC2)C[C@H]2C(=O)N[C@]3(C(=O)NS(=O)(=O)C4(C)CC4)C[C@H]3/C=C\CCCCC[C@H](NC(=O)c3ccn(C(F)F)n3)C(=O)N2C1 [Example 468, (2R,6S,12Z,13aS,14aR,16aS)-6-({[1-(difluoromethyl)-1H-pyrazol-3-yl]carbonyl}amino)-5′-ethyl-9′-methoxy-N-[(1-methylcyclopropyl)sulfonyl]-5,16-dioxo-1,1′,2′,6,7,8,9,10,11,13a,14,15,16,16a-tetradecahydrospiro[cyclopropa[e]pyrrolo[1,2-a][1,4]diazacyclopentadecine-2,3′-pyrano[2,3-c]quinoline]-14a(5H)-carboxamide]
HCV genotype 1b replicon; HCV replicon, genotype 1b
  EC50: 7.15 nM
[1]; [3]
  IC50: 0.031 nM

## Cc1nc2cc(F)ccc2c2c1O[C@]1(CC2)C[C@H]2C(=O)N[C@]3(C(=O)NS(=O)(=O)C4(C)CC4)C[C@H]3/C=C\CCCCC[C@H](NC(=O)OC3CCCC3)C(=O)N2C1 [Example 327, cyclopentyl [(2R,6S,12Z,13aS,14aR,16aS)-8′-fluoro-5′-methyl-14a-{[(1-methylcyclopropyl)sulfonyl]carbamoyl}-5,16-dioxo-1,1′,2′,5,6,7,8,9,10,11,13a,14,14a,15,16,16a-hexadecahydrospiro[cyclopropa[e]pyrrolo[1,2-a][1,4]diazacyclopentadecine-2,3′-pyrano[2,3-c]quinolin]-6-yl]carbamate]
HCV genotype 1b replicon; genotype 1b replicon, K+ salt
  EC50: 3.61 nM
[1]; [6]
  IC50: 0.026 nM

## CC[C@H](C)OC(=O)N[C@H]1CCCCC/C=C\[C@@H]2C[C@@]2(C(=O)NS(=O)(=O)C2(COC)CC2)NC(=O)[C@@H]2C[C@]3(CCc4c(c(C(F)F)nc5ccc(OC)cc45)O3)CN2C1=O [Example 477, (2S)-butan-2-yl [(2R,6S,12Z,13aS,14aR,16aS)-5′-(difluoromethyl)-9′-methoxy-14a-({[1-(methoxymethyl)cyclopropyl]sulfonyl}carbamoyl)-5,16-dioxo-1,1′,2′,5,6,7,8,9,10,11,13a,14,14a,15,16,16a-hexadecahydrospiro[cyclopropa[e]pyrrolo[1,2-a][1,4]diazacyclopentadecine-2,3′-pyrano[2,3-c]quinolin]-6-yl]carbamate]
HCV genotype 1b replicon; [4]
  EC50: 5.05 nM
[1]; [5]
  IC50: 0.019 nM

## COc1ccc2nc(C3CC3)c3c(c2c1)CC[C@]1(C[C@H]2C(=O)N[C@]4(C(=O)NS(=O)(=O)C5(C)CC5)C[C@H]4/C=C\CCCCC[C@H](NC(=O)OC4CCCC4)C(=O)N2C1)O3 [Example 91, cyclopentyl [(2R,6S,12Z,13aS,14aR,16aS)-5′-cyclopropyl-9′-methoxy-14a-{[(1-methylcyclopropyl)sulfonyl]carbamoyl}-5,16-dioxo-1,1′,2′,5,6,7,8,9,10,11,13a,14,14a,15,16,16a-hexadecahydrospiro[cyclopropa[e]pyrrolo[1,2-a][1,4]diazacyclopentadecine-2,3′-pyrano[2,3-c]quinolin]-6-yl]carbamate]
HCV genotype 1b replicon; genotype 1b replicon
  EC50: 0.46 nM
[1]; [2]
  IC50: 0.009 nM

## COc1ccc2nc(C)c3c(c2n1)CC[C@]1(C[C@H]2C(=O)N[C@]4(C(=O)NS(=O)(=O)C5(C)CC5)C[C@H]4/C=C\CCCCC[C@H](NC(=O)OC(C)(C)C)C(=O)N2C1)O3 [Example 11, tert-butyl (2R,6S,13aS,14aR,16aS,Z)-2′-methoxy-6′-methyl-14a-(1-methylcyclopropylsulfonylcarbamoyl)-5,16-dioxo-3,5,6,7,8,9,9′,10,10′,11,13a,14,14a,15,16,16a-hexadecahydro-1H-spiro[cyclopropa[e]pyrrolo[1,2-a][1,4]diazacyclopentadecine-2,8′-pyrano[2,3-c][1,5]naphthyridine]-6-ylcarbamate]
HCV genotype 1b replicon; genotype 1b replicon
  EC50: 2.71 nM
[1]; [2]
  IC50: 0.007 nM

## CCOC(=O)N[C@H]1CCCCC/C=C\[C@@H]2C[C@@]2(C(=O)NS(=O)(=O)C2(C)CC2)NC(=O)[C@@H]2C[C@]3(CCc4c(c(C)nc5ccccc45)O3)CN2C1=O [Example 115, ethyl [(2R,6S,12Z,13aS,14aR,16aS)-5′-methyl-14a-{[(1-methylcyclopropyl)sulfonyl]carbamoyl}-5,16-dioxo-1,1′,2′,5,6,7,8,9,10,11,13a,14,14a,15,16,16a-hexadecahydrospiro[cyclopropa[e]pyrrolo[1,2-a][1,4]diazacyclopentadecine-2,3′-pyrano[2,3-c]quinolin]-6-yl]carbamate]
HCV genotype 1b replicon; genotype 1b replicon
  EC50: 6.86 nM
[1]; [2]
  IC50: 0.017 nM

Reference: patent publication US8987195B2 (priority 2012, dated 2015)
